In series [1] the test system is Hedgehog protein signaling pathway. In words: Inhibition of Shh-induced differentiation of C3H10T1/2 cells (alkaline phosphatase activity, OD 415 nm). The format is cell-based, mouse. The note with it: for inhibition of the alkaline phosphatase activity induced by the overexpression of Shh: 10 μM, 5 days, C3H10T1/2 cells transfected with Shh plasmid pRK5. Here is the method: The differentiation of the C3H10T1/2 cells, which is accompanied by induction of alkaline phosphatase activity, is then evaluated by measuring the optical density at 415 nm, in the presence of the alkaline phosphatase substrate, para-nitrophenyl phosphate. The values indicated correspond to the mean±standard error (n=4), and
The inhibition of differentiation of the C3H10T1/2 cells is expressed through the percentage alkaline phosphatase activity, relative to the nontreated cells (maximum activity=100%). The values indicated correspond to the mean±standard error (n=4) of two independent experiments.
The C3H10T1/2 pluripotent fibroblast cell line (ATCC) is cultured under the conditions recommended by the ATCC. C3H10T1/2 cells were transfected with the plasmid pRK5 encoding the mouse Shh protein (Taipale et al., Nature, 2001, 411, 349-354), using calcium phosphate, according to conventional protocols.

For a further series, the system named is mammalian embryos. The note with it: cited from earlier work.
Another series concerns the target glucocorticoid receptors (Homo sapiens, UniProt P04150). Conditions: cited from earlier work.

Sequence of glucocorticoid receptors (P04150 whole entry): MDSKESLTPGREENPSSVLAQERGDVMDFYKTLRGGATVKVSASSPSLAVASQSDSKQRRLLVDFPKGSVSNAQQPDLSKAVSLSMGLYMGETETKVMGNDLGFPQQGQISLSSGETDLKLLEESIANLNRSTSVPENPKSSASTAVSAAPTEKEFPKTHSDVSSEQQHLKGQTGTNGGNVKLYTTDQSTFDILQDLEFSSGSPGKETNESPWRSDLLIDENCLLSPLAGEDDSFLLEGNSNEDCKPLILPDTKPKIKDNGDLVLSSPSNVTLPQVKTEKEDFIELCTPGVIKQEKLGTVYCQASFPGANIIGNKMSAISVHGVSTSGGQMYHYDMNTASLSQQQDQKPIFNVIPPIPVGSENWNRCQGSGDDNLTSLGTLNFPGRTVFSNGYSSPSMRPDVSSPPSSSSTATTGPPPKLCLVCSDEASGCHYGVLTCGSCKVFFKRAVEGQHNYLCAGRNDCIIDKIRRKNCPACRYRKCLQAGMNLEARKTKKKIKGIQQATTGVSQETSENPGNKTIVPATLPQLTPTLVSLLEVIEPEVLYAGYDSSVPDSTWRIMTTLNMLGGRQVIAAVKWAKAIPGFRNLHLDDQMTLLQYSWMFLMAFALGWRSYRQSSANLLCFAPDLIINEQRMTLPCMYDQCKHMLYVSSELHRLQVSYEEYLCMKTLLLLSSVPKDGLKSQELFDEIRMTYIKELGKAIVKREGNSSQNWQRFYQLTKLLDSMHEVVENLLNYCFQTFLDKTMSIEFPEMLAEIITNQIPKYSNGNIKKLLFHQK

As to `CC#C[C@]1(O)CC[C@H]2[C@@H]3CCC4=CC(=O)CCC4=C3[C@@H](c3ccc(N(C)C)cc3)C[C@@]21C` [mifepristone, 17β-hydroxy-11β-(4-dimethylaminophenyl)-17α-(prop-1-ynyl)estra-4,9-dien-3-one], in series [1], the “inhibition of the alkaline phosphatase activity induced by the overexpression of Shh” value was “completely inhibits”. For the same molecule, the IC50 in series [1] (C3H10T1/2 cells transfected with Shh plasmid pRK5, treated 5 days, 1 nM to 10 μM, alkaline phosphatase activity, mean±standard error (n=4), two experiments, read-out: concentration that inhibits 50% of cell differentiation (IC50)) is 3.7 µM. Besides, the teratogenic effect result with mammalian embryos was “devoid of any teratogenic effect”. For the same molecule, on glucocorticoid receptors, the “affinity for glucocorticoid receptors” value is listed as “strong affinity”.
Consider `CC1=C2C[C@H]3[C@@H](CC=C4C[C@@H](O)CC[C@@]43C)[C@@H]2CC[C@]12O[C@@H]1C[C@H](C)CN[C@H]1[C@H]2C` [cyclopamine], for which the “inhibition of the alkaline phosphatase activity induced by the overexpression of Shh” value in series [1] is recorded as “completely inhibited”. Moreover, in the series on mammalian embryos, the teratogenic effect result was “teratogenic agent that causes holoprosencephaly and cyclopia”.
